{"source": "patent US11974574B2", "about": "“Compositions and related methods for modulating endosymbionts” (Flagship Pioneering Innovations V, Inc., priority 2017, dated 2024)", "molecules": {"B1": {"name": "Bcr1 dsRNA: dsRNA hairpin targeting the Bcr1 gene (ACYPI32128), SEQ ID NO: 93 (nucleic acid, listed as Acyrthosiphon pisum)", "chain": "AUGAAACUGCUGCAUGGCUUUCUGAUUAUUAUGCUGACCAUGCAUCUGAGCAUUCAGUAUGCGUAUGGCGGCCCGUUUCUGACCAAAUAUCUGUGCGAUCGCGUGUGCCAUAAACUGUGCGGCGAUGAAUUUGUGUGCAGCUGCAUUCAGUAUAAAAGCCUGAAAGGCCUGUGGUUUCCGCAUUGCCCGACCGGCAAAGCGAGCGUGGUGCUGCAUAACUUUCUGACCAGCCCGUUUUUUUUUUCGGGCUGGUCAGAAAGUUAUGCAGCACCACGCUCGCUUUGCCGGUCGGGCAAUGCGGAAACCACAGGCCUUUCAGGCUUUUAUACUGAAUGCAGCUGCACACAAAUUCAUCGCCGCACAGUUUAUGGCACACGCGAUCGCACAGAUAUUUGGUCAGAAACGGGCCGCCAUACGCAUACUGAAUGCUCAGAUGCAUGGUCAGCAUAAUAAUCAGAAAGCCAUGCAGCAGUUUCAU"}}, "key": {"Myzus persicae [1]": {"system": "Myzus persicae", "assay": "Cy3-PNA in artificial diet, aphid survival (Example 13)", "type": "in vivo", "conditions": "Myzus persicae second and third instar, final 0.5 to 10 mg/L Cy3-PNA, fed 24 hr, mortality checked every 24 h for 4 days", "experimental": "Therapeutic Design: Cy3-PNA Solutions are Formulated with 0, 0.5, 1, 5 or 10 mg/L of Cy3-PNA from Example 11 in 10 mL of 0.5% Sucrose and Essential Amino Acids.\n(§1) To prepare for the treatment, aphids are grown in a lab environment and medium. In a climate-controlled room (16 h light photoperiod; 60±5% RH; 20±2° C.), plants are grown in a mixture of vermiculite and perlite and are infested with aphids. To limit maternal effects or health differences between plants, 5-10 adults from different plants are distributed among 10 two-week-old plants, and allowed to multiply to high density for 5-7 days. For experiments, second and third instar aphids are collected from healthy plants and divided into treatments so that each treatment receives approximately the same number of individuals from each of the collection plants.\nWells of a 96-well plate are filled with 200 μl of artificial aphid diet (Febvay et al., Canadian Journal of Zoology 66(11):2449-2453, 1988) and the plate is covered with parafilm to make a feeding sachet. Artificial diet is either mixed with the solution of sterile water with 0.5% sucrose and essential amino acids only as a negative control, or mixed with Cy3-PNA solutions. Cy3-PNA solutions are mixed with artificial diet to obtain final concentrations between 0.5 to 10 mg/L. […]"}, "[2]": {"system": "its target bacterial strains", "conditions": "against its target bacterial strains; cited from earlier work"}, "Rhopalosiphum maidis": {"system": "Rhopalosiphum maidis", "assay": "Bcr1 dsRNA in artificial diet, aphid survival (Example 3)", "type": "in vivo", "conditions": "Rhopalosiphum maidis second and third instar, final 0.5 to 5 μg/ml dsRNA, fed 24 hr, mortality checked every 24 h for 4 days", "experimental": "(§2) Aphids are one of the most important agricultural insect pests. They cause direct feeding damage to crops and serve as vectors of plant viruses. In addition, aphid honeydew promotes the growth of sooty mold and attracts nuisance ants. The use of chemical treatments, unfortunately still widespread, leads to the selection of resistant individuals whose eradication becomes increasingly difficult. Therapeutic design: dsRNA solutions are formulated with 0 (negative control), 0.5, 1, or 5 μg/ml of Bcr1 dsRNA from Example 2 in 10 mL of TE buffer with 0.5% sucrose and essential amino acids.\nas §1, with “C.), fava bean” for “C.),”, “plants. […]” for “plants.”"}, "Myzus persicae [3]": {"system": "Myzus persicae", "assay": "Bcr1 dsRNA in artificial diet, aphid survival (Example 9)", "type": "in vivo", "conditions": "Myzus persicae second and third instar, final 0.5 to 5 μg/ml dsRNA, fed 24 hr, mortality checked every 24 h for 4 days", "experimental": "as §2, with “μg/mL” for “μg/ml”, “7” for “2”\nas §1, with “(16 hr” for “(16 h”, “plants. […]” for “plants.”"}}, "note": "{Cy3} = Cy3 dye attached by click chemistry"}
{"molecule": "Cy3-Gaatgcagctgc (antisense GAATGCAGCTGC; all peptide nucleic acid (PNA), 5' {Cy3}; Cy3 attached via DBCO-azide click chemistry) [Cy3-PNA, antisense PNA against bacteriocyte target gene Bcr1 joined to Cy3 dye through click chemistry]", "values": [{"measurement": "survival rate of aphids compared to the control treated aphids", "setting": "Myzus persicae [1]", "result": "decreased"}]}
{"molecule": "ITSISLCTPGCKTGALMGCNMKTATCHCSIHVSK [nisin]", "values": [{"measurement": "concentration showing antimicrobial activity", "setting": "[2]", "result": "single-digit nanomolar concentration"}]}
{"molecule": "B1", "values": [{"measurement": "survival rate of aphids compared to the control treated aphids", "setting": "Rhopalosiphum maidis", "result": "decreased"}, {"measurement": "survival rate of aphids compared to the control treated aphids", "setting": "Myzus persicae [3]", "result": "decreased"}]}
